Test results taken from patent US6117841A, “Substituted peptidylamine calcium channel blockers” (Warner-Lambert Company, priority 1999, dated 2000).
Read-outs that look alike come from different tables or passages of the source.

Biological target: T1, N-type Ca^2+ Channel (Homo sapiens, UniProt Q00975)
T1 construct: host or cells: IMR-32 cells differentiated with dibutyryl cAMP and bromodeoxyuridine
Test: Measurement of N-type Ca2+ channel blocking potencies in IMR-32 cells using the fluorescent Ca2+ indicator Indo-1
Assay type: cell-based
Conditions: IMR-32 cells
Protocol: Measurement of N-type Ca^2+ Channel Blocking Potencies of Compounds in IMR-32 Cells Using the Fluorescent Ca^2 + Indicator Indo-1
IMR-32 cells are a human tumoral cell line of neural origin. […] Calcium flux into these cells may be induced by stimulation with elevated potassium concentrations. The L-channel component of calcium flux may be blocked by adding 5 μM nitrendipine. The remaining component of calcium entry into the IMR-32 cells is due to calcium flux through N-type calcium channels. Intracellular calcium concentrations are measured using the fluorescent calcium indicator Indo-1. The effect of drug concentration on calcium uptake is studied.
The IMR-32 cell line was obtained from the American Type Culture Collection (Rockville, Md.). Cells were grown in Eagle's Minimum Essential Medium with Earle's salts supplemented with 10% fetal bovine serum, 2 mM L-Gln and antibiotic/antimycotic mixture (Gibco). At approximately 80% confluency, differentiation was induced by the addition of 1 mM dibutyryl cAMP and 2.5 μM bromodeoxyuridine to the medium. After 7 to 13 days of differentiation, cells were detached using 0.5 mM EDTA and loaded with 5 μM Indo-1 acetoxymethyl ester (Molecular Probes, Eugene, Oreg.) at 30° C. for 45 minutes. Loaded cells were washed twice, resuspended (~10^7 cells/mL) in assay buffer (10 mM HEPES/Tris pH 7.4 in Hank's Balanced Salt Solution without bicarbonate or phenol red containing 0.5% bovine serum albumin) and kept on ice until use. Fluorescence measurements were carried out in a Photon Technology International (PTI, South Brunswick, N.J.) Model RF-F3004 spectrofluorometer with dual emission monochromators using excitation at 350 nm and emission at 400 and 490 nm. The instrument was equipped with a thermostated cuvette holder with stirring capabilities as well as with a computer-controlled pump which allowed for reagent addition during measurement. Instrument control and data collection was done by PTI's OSCAR software running on an IBM compatible computer. Different concentrations of the test compounds (60 μL in dimethyl sulfoxide) were added to 5.94 mL of assay buffer containing approximately 3×10^6 loaded cells, and 5 μM nitrendipine (in 30 μL EtOH) to block L-type Ca^2+ channels. Samples were incubated for 10 minutes at 30° C. and then aliquoted into three 10×10 mm disposable acrylic cuvettes. Emission signals at 400 and 490 nm were acquired from each cuvette at 30° C. for 50 seconds. At 20 seconds after the start of reading, cells were depolarized by the addition of 160 μL of stimulation solution (1 M KCl, 68 mM CaCl2) to the cuvette via the computer-controlled pump. Ratio of dual emission signals (400 nm/ 490 nm), which is proportional to intracellular Ca^2+ concentration, was plotted against time, and the difference between maximal response after stimulation and basal value (before stimulation) was determined. Values obtained in this way were plotted as a function of drug concentration. IC50 values of test compounds were calculated by fitting a four-parameter logistic function to the data using the least squares method.

[1] = K+ depolarization, 5 μM nitrendipine to block L-type channels, read-out: IMR 32 IC50
[2] = 5 μM nitrendipine, Examples 116-140, read-out: IMR 32% of Blockade @

T1 sequence (Q00975 whole entry): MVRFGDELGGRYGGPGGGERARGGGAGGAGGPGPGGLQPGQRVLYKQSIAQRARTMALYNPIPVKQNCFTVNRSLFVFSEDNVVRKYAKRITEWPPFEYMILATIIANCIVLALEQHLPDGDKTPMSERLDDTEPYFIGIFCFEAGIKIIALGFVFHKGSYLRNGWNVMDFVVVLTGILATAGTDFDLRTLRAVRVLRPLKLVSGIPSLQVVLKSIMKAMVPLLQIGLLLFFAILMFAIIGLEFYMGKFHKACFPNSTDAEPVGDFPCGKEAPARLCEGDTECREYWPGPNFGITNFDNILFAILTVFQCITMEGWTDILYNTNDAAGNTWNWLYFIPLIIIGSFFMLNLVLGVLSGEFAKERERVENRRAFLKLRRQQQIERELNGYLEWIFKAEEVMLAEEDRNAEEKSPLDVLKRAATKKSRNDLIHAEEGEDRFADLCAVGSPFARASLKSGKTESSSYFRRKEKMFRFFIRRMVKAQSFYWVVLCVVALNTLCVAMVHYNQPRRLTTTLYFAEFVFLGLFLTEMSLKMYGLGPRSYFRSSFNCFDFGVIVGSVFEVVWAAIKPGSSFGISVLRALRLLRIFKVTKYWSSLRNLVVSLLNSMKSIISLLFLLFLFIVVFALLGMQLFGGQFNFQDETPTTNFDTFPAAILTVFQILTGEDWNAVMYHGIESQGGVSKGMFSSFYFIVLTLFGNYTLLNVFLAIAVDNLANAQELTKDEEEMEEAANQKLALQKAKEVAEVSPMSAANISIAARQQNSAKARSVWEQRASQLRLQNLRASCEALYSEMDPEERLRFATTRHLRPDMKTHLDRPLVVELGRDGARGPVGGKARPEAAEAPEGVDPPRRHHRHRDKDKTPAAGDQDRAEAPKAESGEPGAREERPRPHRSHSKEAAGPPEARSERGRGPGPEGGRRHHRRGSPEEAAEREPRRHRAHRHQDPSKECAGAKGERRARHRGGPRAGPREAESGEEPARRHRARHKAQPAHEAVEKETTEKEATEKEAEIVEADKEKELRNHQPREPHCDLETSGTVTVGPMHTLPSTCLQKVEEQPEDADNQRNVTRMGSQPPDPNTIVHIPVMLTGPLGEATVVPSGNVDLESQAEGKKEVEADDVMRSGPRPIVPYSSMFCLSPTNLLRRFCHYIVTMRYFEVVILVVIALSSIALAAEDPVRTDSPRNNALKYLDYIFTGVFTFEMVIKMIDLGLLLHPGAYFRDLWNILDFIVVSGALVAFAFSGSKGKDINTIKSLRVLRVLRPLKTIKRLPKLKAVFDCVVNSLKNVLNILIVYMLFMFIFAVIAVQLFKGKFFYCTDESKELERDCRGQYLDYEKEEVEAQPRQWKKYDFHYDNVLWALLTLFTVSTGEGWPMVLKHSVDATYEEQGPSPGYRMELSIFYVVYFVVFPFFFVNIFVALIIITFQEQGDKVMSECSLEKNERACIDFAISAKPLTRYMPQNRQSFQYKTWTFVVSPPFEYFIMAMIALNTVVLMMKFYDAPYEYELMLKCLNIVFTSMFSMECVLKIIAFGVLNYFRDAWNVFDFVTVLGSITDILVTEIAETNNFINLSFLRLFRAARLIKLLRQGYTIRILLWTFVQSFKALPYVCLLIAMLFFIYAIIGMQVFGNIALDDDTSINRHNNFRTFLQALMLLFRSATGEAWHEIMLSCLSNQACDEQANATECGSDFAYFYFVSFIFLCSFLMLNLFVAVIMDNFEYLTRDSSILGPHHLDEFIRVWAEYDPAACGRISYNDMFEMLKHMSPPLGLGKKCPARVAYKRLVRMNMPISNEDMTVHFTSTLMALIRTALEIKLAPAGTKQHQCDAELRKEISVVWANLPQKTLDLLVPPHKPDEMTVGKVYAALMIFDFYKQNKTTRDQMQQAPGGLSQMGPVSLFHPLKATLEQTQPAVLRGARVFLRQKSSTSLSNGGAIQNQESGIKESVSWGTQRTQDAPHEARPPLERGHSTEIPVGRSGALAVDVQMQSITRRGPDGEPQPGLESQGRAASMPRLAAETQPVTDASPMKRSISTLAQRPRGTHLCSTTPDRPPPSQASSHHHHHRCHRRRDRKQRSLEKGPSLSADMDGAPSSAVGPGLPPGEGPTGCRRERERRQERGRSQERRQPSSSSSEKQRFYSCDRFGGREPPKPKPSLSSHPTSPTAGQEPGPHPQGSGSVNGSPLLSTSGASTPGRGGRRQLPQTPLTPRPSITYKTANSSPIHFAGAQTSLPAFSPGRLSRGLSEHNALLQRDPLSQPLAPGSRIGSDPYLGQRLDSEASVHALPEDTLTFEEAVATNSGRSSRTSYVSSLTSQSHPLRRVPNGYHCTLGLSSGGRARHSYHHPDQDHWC
T1 sequence (P54284 whole entry partner): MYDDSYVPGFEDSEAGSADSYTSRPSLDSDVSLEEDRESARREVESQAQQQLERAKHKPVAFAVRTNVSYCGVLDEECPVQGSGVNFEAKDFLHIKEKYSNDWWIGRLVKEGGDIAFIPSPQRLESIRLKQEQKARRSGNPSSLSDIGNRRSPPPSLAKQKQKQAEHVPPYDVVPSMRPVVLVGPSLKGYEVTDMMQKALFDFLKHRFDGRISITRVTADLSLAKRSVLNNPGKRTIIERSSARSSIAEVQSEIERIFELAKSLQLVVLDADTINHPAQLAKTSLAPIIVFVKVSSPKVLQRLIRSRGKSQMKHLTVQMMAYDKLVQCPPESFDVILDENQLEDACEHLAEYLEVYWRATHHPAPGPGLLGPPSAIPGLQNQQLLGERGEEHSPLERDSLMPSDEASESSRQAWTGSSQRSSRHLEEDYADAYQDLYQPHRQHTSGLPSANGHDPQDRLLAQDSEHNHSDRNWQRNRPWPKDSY
T1 sequence (P54289 25-946 partner limits assumed): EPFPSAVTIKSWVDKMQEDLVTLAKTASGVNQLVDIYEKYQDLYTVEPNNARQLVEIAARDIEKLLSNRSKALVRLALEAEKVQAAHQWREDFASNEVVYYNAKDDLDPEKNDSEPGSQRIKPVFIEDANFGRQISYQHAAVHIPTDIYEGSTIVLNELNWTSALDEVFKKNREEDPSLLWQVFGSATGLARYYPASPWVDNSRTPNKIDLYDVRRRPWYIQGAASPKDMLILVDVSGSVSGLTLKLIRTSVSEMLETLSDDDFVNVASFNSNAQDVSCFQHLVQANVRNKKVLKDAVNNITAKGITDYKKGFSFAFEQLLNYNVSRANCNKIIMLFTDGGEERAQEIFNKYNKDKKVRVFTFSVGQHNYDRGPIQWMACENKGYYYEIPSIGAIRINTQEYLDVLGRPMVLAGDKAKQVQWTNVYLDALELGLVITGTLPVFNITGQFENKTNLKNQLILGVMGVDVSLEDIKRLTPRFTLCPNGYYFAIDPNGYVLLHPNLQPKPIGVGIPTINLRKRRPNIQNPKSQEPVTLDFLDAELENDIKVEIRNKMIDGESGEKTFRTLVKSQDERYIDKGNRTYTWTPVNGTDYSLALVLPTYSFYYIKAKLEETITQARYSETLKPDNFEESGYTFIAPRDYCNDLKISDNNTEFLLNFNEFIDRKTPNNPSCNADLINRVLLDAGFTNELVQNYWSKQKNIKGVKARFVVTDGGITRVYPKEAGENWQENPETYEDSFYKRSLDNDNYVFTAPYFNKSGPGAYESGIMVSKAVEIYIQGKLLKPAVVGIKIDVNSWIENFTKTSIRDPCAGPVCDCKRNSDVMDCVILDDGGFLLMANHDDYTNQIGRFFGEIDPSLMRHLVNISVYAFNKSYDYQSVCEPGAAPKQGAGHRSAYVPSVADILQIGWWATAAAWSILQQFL
T1 sequence (P54289 947-1103 partner limits assumed): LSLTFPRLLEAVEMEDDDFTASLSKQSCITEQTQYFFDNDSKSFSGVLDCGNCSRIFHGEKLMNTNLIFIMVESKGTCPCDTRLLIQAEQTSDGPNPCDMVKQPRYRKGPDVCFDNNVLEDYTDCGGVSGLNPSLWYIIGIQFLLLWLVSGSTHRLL

Row | IC50 [1] [nM] | IC50 [2] [nM] | Molecule | also measured
1 | – | – | CC(C)C[C@@H](C(=O)N[C@@H](Cc1ccc(OCc2ccccc2)cc1)C(=O)NC(C)(C)C)N(C)C1CCC(C(C)(C)C)CC1 (relative stereo) [Example 38, [S-(R*,R*)]-2-[(4-tert-Butyl-cyclohexyl)-methyl-amino]-4-methyl-pentanoic acid [2-(4-benzyloxy-phenyl)-1-tert-butylcarbamoyl-ethyl]-amide] | IMR 32 % of Blockade @ 1 μM (5 μM nitrendipine): 23%
2 | 400 | – | CC(C)CCN(C)[C@@H](CC(C)C)C(=O)N[C@@H](Cc1ccc(OCc2ccccc2)cc1)C(=O)NC1CCN(Cc2ccccc2)C1 (relative stereo) [Example 67, [S-(R*,R*)]-4-Methyl-2-[methyl-(3-methyl-butyl)-amino]-pentanoic acid [2-(4-benzyloxy-phenyl)-1-(1-benzyl-pyrrolidin-3-ylcarbamoyl)-ethyl]-amide] | –
3 | – | – | CC(C)C[C@@H](C(=O)N[C@@H](Cc1ccc(OCc2ccccc2)cc1)C(=O)N1CCCCC1)N(C)C (relative stereo) [Example 2, [S-(R*,R*)]-2-Dimethylamino-4-methyl-pentanoic acid [2-(4-benzyloxy-phenyl)-1-(piperidine-1-carbonyl)-ethyl]-amide] | IMR 32 % of Blockade @ 1 μM (5 μM nitrendipine): 36%; IMR 32 % of Blockade @ 10 μM (5 μM nitrendipine): 92%
4 | – | – | CC(C)CCN(C)C(CC(C)C)C(=O)NC(Cc1ccc(OCc2ccccc2)cc1)C(=O)N1CCN(Cc2ccccc2)CC1 (stereo not drawn) [Example 10, [S-(R*,R*)]4-Methyl-2-[methyl-(3-methyl-butyl)-amino]-pentanoic acid [1-(4-benzyloxy-benzyl)-2-(4-benzyl-piperazin-1-yl)-2-oxo-ethyl]-amide] | IMR 32 % of Blockade @ 1 μM (5 μM nitrendipine): 61%; IMR 32 % of Blockade @ 10 μM (5 μM nitrendipine): 80%
5 | – | 38800 | CC(C)C[C@@H](C(=O)N[C@@H](Cc1ccc(OCc2ccccc2)cc1)C(=O)NCCN1CCCC1)N(C)C (relative stereo) [Example 139, [S-(R*,R*)]-2-Dimethylamino-4-methyl-pentanoic acid [2-(4-benzyloxy-phenyl)-1-(2-pyrrolidin-1-yl-ethylcarbamoyl)-ethyl]-amide] | –
6 | 400 | – | CC(C)CCN(C)[C@@H](CC(C)C)C(=O)N[C@@H](Cc1ccc(OCc2ccccc2)cc1)C(=O)N1CCSCC1 (relative stereo) [Example 61, [S-(R*,R*)]-4-Methyl-2-[methyl-(3-methyl-butyl)-amino]-pentanoic acid [1-(4-benzyloxy-benzyl)-2-oxo-2-thiomorpholin-4-yl-ethyl]-amide] | –
7 | – | – | CC(C)C[C@@H](C(=O)N[C@@H](Cc1ccc(OCc2ccccc2)cc1)C(=O)N1CCN(Cc2ccccc2)CC1)N(C)Cc1ccc(C(C)(C)C)cc1 (relative stereo) [Example 16, [S-(R*,R*)-2-[(4-tert-Butyl-benzyl)-methyl-amino]-4-methyl-pentanoic acid [1-(4-benzyloxy-benzyl)-2-(4-benzyl-piperazin-1-yl)-2-oxo-ethyl]-amide] | IMR 32 % of Blockade @ 1 μM (5 μM nitrendipine): 41%; IMR 32 % of Blockade @ 10 μM (5 μM nitrendipine): 66%
8 | – | 9700 | CC(C)C[C@@H](C(=O)N[C@@H](Cc1ccc(OCc2ccccc2)cc1)C(=O)NCCN1CCCC1)N1CCOCC1 (relative stereo) [Example 125, [S-(R*,R*)]-4-Methyl-2-morpholin-4-yl-pentanoic acid [2-(4-benzyloxy-phenyl)-1-(2-pyrrolidin-1-yl-ethylcarbamoyl)-ethyl]-amide] | –
9 | 280 | – | CCCCN(C)[C@@H](CC(C)C)C(=O)N[C@@H](Cc1ccc(OCc2ccccc2)cc1)C(=O)NC(C)(C)C (relative stereo) [Example 41, [S-(R*,R*)]-2-(Butyl-methyl-amino)-4-methyl-pentanoic acid [2-(4-benzyloxy-phenyl)-1-tert-butylcarbamoyl-ethyl]-amide] | –
10 | – | 3000 | CCC(COC)NC(=O)[C@H](Cc1ccc(OCc2ccccc2)cc1)NC(=O)[C@H](CC(C)C)N(C)C (relative stereo) [Example 138, [S-(R*,R*)]-2-Dimethylamino-4-methyl-pentanoic acid [2-(4-benzyloxy-phenyl)-1-(1-methoxymethyl-propylcarbamoyl)-ethyl]-amide] | –
11 | – | 12000 | CC(C)C[C@@H](C(=O)N[C@@H](Cc1ccc(OCc2ccccc2)cc1)C(=O)NCCN1CCOCC1)N(C)C (relative stereo) [Example 132, [S-(R*,R*)]-2-Dimethylamino-4-methyl-pentanoic acid [2-(4-benzyloxy-phenyl)-1-(2-morpholin-4-yl-ethylcarbamoyl)-ethyl]-amide] | –
12 | 300 | – | CC(C)CC(C(=O)NC(Cc1ccc(OCc2ccccc2)cc1)C(=O)NC(C)(C)C)N(C)Cc1ccc(F)cc1 (stereo not drawn) [Example 80, [S-(R*,R*)]-2-[(4-Fluoro-benzyl)-methyl-amino]-4-methyl-pentanoic acid [2-(4-benzyloxy-phenyl)-1-tert-butylcarbamoyl-ethyl]-amide] | –
13 | 2100 | – | CC(C)CCN(C)[C@@H](CC(C)C)C(=O)N[C@@H](Cc1ccc(OCc2ccccc2)cc1)C(=O)NCCN1CCOCC1 (relative stereo) [Example 57, [S-(R*,R*)]-4-Methyl-2-[methyl-(3-methyl-butyl)-amino]-pentanoic acid [2-(4-benzyloxy-phenyl)-1-(2-morpholin-4-yl-ethylcarbamoyl)-ethyl]-amide] | –
14 | 770 | – | CC(C)C[C@H](NCc1ccc(C(C)(C)C)cc1)C(=O)N[C@@H](Cc1ccc(OCc2ccccc2)cc1)C(=O)N1CCN(Cc2ccccc2)CC1 (relative stereo) [Example 52, [S-(R*,R*)]-2-(4-tert-Butyl-benzylamino)-4-methyl-pentanoic acid [1-(4-benzyloxy-benzyl)-2-(4-benzyl-piperazin-1-yl)-2-oxo-ethyl]-amide] | –
15 | – | – | CC(C)CCN(C)[C@@H](CC(C)C)C(=O)N[C@@H](Cc1ccc(OCc2ccccc2)cc1)C(=O)N1CCN(C)CC1 (relative stereo) [Example 12, [S-(R*,R*)]-4-Methyl-2-[methyl-(3-methyl-butyl)-amino]-pentanoic acid [1-(4-benzyloxy-benzyl)-2-(4-methyl-piperazin-1-yl)-2-oxo-ethyl]-amide] | IMR 32 % of Blockade @ 1 μM (5 μM nitrendipine): 39%; IMR 32 % of Blockade @ 10 μM (5 μM nitrendipine): 88%
16 | 390 | – | CC(C)C[C@@H](C(=O)N[C@@H](Cc1ccc(OCc2ccccc2)cc1)C(=O)NC(C)(C)C)N(C)C1CCC(C)CC1 (relative stereo) [Example 39, [S-(R*,R*)]-4-Methyl-2-[methyl-(4-methyl-cyclohexyl)-amino]-pentanoic acid [2-(4-benzyloxy-phenyl)-1-tert-butylcarbamoyl-ethyl]-amide] | –
17 | – | 640 | CC(C)CCN(C)[C@@H](CC(C)C)C(=O)N[C@@H](Cc1ccc(OCc2ccccc2)cc1)C(=O)NCCN1CCCCC1 (relative stereo) [Example 117, [S-(R*,R*)]-4-Methyl-2-[methyl-(3-methylbutyl)-amino]-pentanoic acid [2-(4-benzyloxy-phenyl)-1-(2-piperidin-1-yl-ethylcarbamoyl)-ethyl]-amide] | –
18 | 1300 | – | CC(C)C[C@@H](C(=O)N[C@@H](Cc1ccc(OCc2ccccc2)cc1)C(=O)NCCN1CCCCC1)N(C)CC1CCCCC1 (relative stereo) [Example 27, [S-(R*,R*)]-2-(Cyclohexylmethyl-methyl-amino)-4-methyl-pentanoic acid [2-(4-benzyloxy-phenyl)-1-(2-piperidin-1-yl-ethylcarbamoyl)-ethyl]-amide] | –
19 | 700 | – | CC(C)C[C@H](NC1CCOCC1)C(=O)N[C@@H](Cc1ccc(OCc2ccccc2)cc1)C(=O)NCCNCc1ccccc1 (relative stereo) [Example 71, [S-(R*,R*)]-4-Methyl-2-(tetrahydro-pyran-4-ylamino)-pentanoic acid [1-(2-benzylamino-ethylcarbamoyl)-2-(4-benzyloxy-phenyl)-ethyl]-amide] | –
20 | – | 6200 | [S-(R*,R*)]-2-Dimethylamino-4-methyl-pentanoic acid [2-(4-benzyloxy-phenyl)-1-(2-hydroxymethylbutan-1-ol)-ethyl]-amide [Example 137] | –
